Values joined by “and” are separate entries in the source; they are usually repeats but may differ in a detail not shown here. Equal values may be shown once.
Legend:
Format in all cases: in vivo, human
[1] = GFR assay: the present compound in urine and sera by enzyme immunoassay, clearance (Example 8)
Procedure: (§1) Enzyme immunoassay was performed using the antibody prepared in Example 6. First, 50 μl of 2-amino-3-[2-(α-D-mannopyranosyl)indole-3-yl]propionic acid-BSA conjugate solution (20 μg/ml 0.1M carbonate buffer, pH9.5) was dispensed into a 96-well microtiter plate (NUNC. Corp.) and left to stand at 4° C. overnight. After washing the plate three times with PBS, 250 μl of 1% BSA/PBS solution was dispensed into the plate and left to stand at room temperature for 1 hour. Then, the plate was washed three times with PBS to be used as a reaction plate. Next, 50 μl of a test sample diluted with 0.1M phosphate buffer (pH 7.4) supplemented with varied concentrations of 2-amino-3-[2-(α-D-mannopyranosyl)indole-3-yl]propionic acid/0.1%BSA or 0.1M phosphate buffer supplemented with 0.1% BSA (pH7.4) was dispensed into the reaction plate into which 50 μl of the monoclonal antibody prepared in Example 6 (10 ng/ml, 0.1M phosphate buffer solution supplemented with 0.1% BSA, pH7.4) was added while stirring. The mixture was allowed to react at room temperature for 3 hours. Then, after the reaction was completed, the plate was washed five times with PBS containing 0.05% Tween 20, and then 50 μl of POD labeled-anti-mouse immunoglobulins-rabbit IgG (DAKO) was added to the plate for reaction at room temperature for 1 hour. After the reaction, the plate was washed five times with PBS containing 0.05% Tween 20, added with 50 μl of MCDP/50 mM citrate buffer solution (pH5.0), and the mixture was allowed to react at room temperature for 30 minutes. Finally, 50 μl of a reaction stopper (ethyl diethyldithiocarbamate) was added to the plate, and absorbance was then determined at 660 nm by a microplate reader. The calibration curve is shown in FIG. 5 in which the concentration of 2-amino-3-[2-(α-D-mannopyranosyl)indole-3-yl]propionic acid was indicated as a concentration of single compound.
Eighteen patients with non-renal disease were assayed for the levels of 2-amino-3-[2-(α-mannopyranosyl)indole-3-yl]propionic acid in their urine and sera as described in Example 7. Urine samples stored for 24 hours were used. Volumes of those samples were determined and then partially stored at −80° C. until assay. Upon use, the frozen urine samples were thawed at 37° C. and kept warm. Subsequently, after sufficient stirring and mixing, the samples were centrifuged at 3000 rpm for 10 minutes to remove impurities. The resultant supernatants were used as samples. Serum samples were collected from the patients' blood, left to stand at room temperature for 30 minutes for coagulation, and centrifuged to collect sera which were stored at −80° C. until use.
Clearance View=(level in urine×urine volume)/(24×60×serum level)

[2] = Quantitation of the compound in serum by high performance liquid chromatography (Examples 3, 4); details: for level in serum: healthy persons, newborns to 90-year-old
Procedure: (§2) Standard solution of 2-amino-3-[2-(α-mannopyranosyl)indole-3-yl]propionic acid obtained in Example 1 above was prepared. Next, 350 μl of the standard solution was added to 500 μl of 0.1N hydrochloric acid containing 1% vitamin C, mixed with 50 μl of 40 μM N-methyl serotonin as an internal standard then 100 μl of 60% perchloric acid, and centrifuged at 3000 rpm at 4° C. The supernatant was filtered through a 0.22 μm filter to obtain a filtrate.
(§3) The filtrate was subjected to high performance liquid chromatography under the following conditions:
Column: Finepak SILC18-T5 (4 mm×25 cm, JASCO Corporation)
Development solvent: Mixed solvent of acetonitrile and buffer (70 mM citric acid: 60 mM disodium phosphate=1;1, v/v, pH3.5)
Detection: Fluorescence, excited at 302 nm, determined at 350 nm
Sera from healthy persons and patients with renal disease were quantitated for the compound of the present invention. First, bloods were collected from the subjects and left to stand at room temperature for 30 minutes for coagulation. Next, the sera were collected by centrifugation at 3000 rpm for 10 minutes and stored at −80° C. until use. Sera from healthy persons (males and females, newborns to 90-year-old persons) were quantitated for the compound of the present invention in the same manner as that of Example 2 except that sera were used instead of the standard solution. […] No difference was detected between ages or between sexes.
Next, sera from patients with renal disease (17 males, average age of 53.9; 13 females, average age of 46.4) were quantitated for the compound of the present invention. […] As shown in this figure, the average value of 856 ng/ml (SD 247) was obtained for samples from male patients while 854 ng/ml (SD 305) for samples from female patients.
(§4) Sera and cerebrospinal fluids from healthy persons and patients with central nervous disease were quantitated for the compound of the present invention. Both sera and cerebrospinal fluids were collected from 22 healthy persons, one patient with spinocerebellar ataxia and one patient with metastatic brain tumor, and quantitated for the compound of the present invention in the sera and the cerebrospinal fluids in the same manner as that of Example 2 except that sera or cerebrospinal fluids were used instead of the standard solution. […] The result of quantitation of the compound in cerebrospinal fluids is shown in FIG. 3 in which ●, □ and Δ show the healthy persons, the patient with spinocerebellar ataxia, and the patient with metastatic brain tumor, respectively. As shown in this figure, the level of the compound in cerebrospinal fluids from healthy persons was determined to be 130.4 ng/ml (SD 29.1). The level of the compound in cerebrospinal fluid from the patient with spinocerebellar ataxia was determined to be 399.4 ng/ml. The level of the compound in cerebrospinal fluid from the patient with metastatic brain tumor was determined to be 822.6 ng/ml.

[3] = Assay of excreted amount in urine: the present compound by enzyme immunoassay (Example 9); details: healthy persons
Procedure: as §1
Healthy persons (male and female, from newborn to 90 year-old) were assayed for levels of 2-amino-3-[2-(α-mannopyranosyl)indole-3-yl]propionic acid in their urine as described in Example 7, to evaluate the usefulness of the method of the present invention for measurement of renal functions. Urine samples stored for 24 hours were pooled, their volumes were determined, and then partially stored at −80° C. until use. Upon use, the frozen urine samples were thawed and kept warm at 37° C. Subsequently, after sufficient stirring and mixing, the samples were centrifuged at 3000 rpm for 10 minutes to remove impurities. The resultant supernatants were used as samples. As a comparative example, creatinine levels in the same test samples were assayed.

[4] = Quantitation of the compound in cerebrospinal fluid by high performance liquid chromatography (Example 4)
Procedure: as §2, §3, §4

In the case of NC(Cc1c([C@H]2O[C@H](CO)[C@@H](O)[C@H](O)[C@@H]2O)[nH]c2ccccc12)C(=O)O (stereo partly drawn) [the present compound, 2-amino-3-[2-(α-mannopyranosyl)indole-3-yl]propionic acid], the “clearance (ml/min) the present compound” value ([1]; Average of 18 subjects) is reported as 68.40 mL/min, the “the present compound in serum” value ([1]; Average of 18 subjects) is reported as 0.24 nmol/mL and the “the present compound in urine” value ([1]; Average of 18 subjects) is reported as 14.87 nmol/mL. The “the present compound in serum” value ([1]; individual subjects 1-18, patients with non-renal disease) was 0.240 nmol/ml (2×) and 0.193 nmol/ml (3×) and 0.166 nmol/ml and 0.280 nmol/ml and 0.200 nmol/ml and 0.319 nmol/ml (3×) and 0.279 nmol/ml (2×) and 0.186 nmol/ml and 0.309 nmol/ml and 0.213 nmol/ml and 0.226 nmol/ml and 0.159 nmol/ml, the “the present compound in urine” value ([1]; individual subjects 1-18, urine stored for 24 hours) was 11.677 nmol/mL and 7.195 nmol/mL and 4.242 nmol/mL and 14.862 nmol/mL and 19.188 nmol/mL and 7.595 nmol/mL and 10.649 nmol/mL and 14.349 nmol/mL and 13.645 nmol/mL and 27.103 nmol/mL and 16.348 nmol/mL and 12.726 nmol/mL and 11.931 nmol/mL and 26.935 nmol/mL and 15.040 nmol/mL and 12.989 nmol/mL and 33.653 nmol/mL and 7.573 nmol/mL and the “clearance (ml/min) the present compound” value ([1]; individual subjects 1-18, (level in urine×urine volume)/(24×60×serum level)) was 64.2 mL/min and 54.2 mL/min and 58.1 mL/min and 80.8 mL/min and 64.3 mL/min and 53.0 mL/min and 72.3 mL/min and 60.7 mL/min and 91.7 mL/min and 56.1 mL/min and 89.1 mL/min and 61.9 mL/min and 89.2 mL/min and 77.6 mL/min and 67.7 mL/min and 65.3 mL/min and 52.8 mL/min. For the same compound, the “level in serum, average value” ([2]; female patients with renal disease (13 females), SD 305) was 854 ng/mL, the “range of levels in sera from 99% of subjects” value ([2]; healthy persons (n=50)) was 52 to 99 ng/mL and the level in serum ([2]; females, SD 12.6) was 74.5 ng/mL. For the same compound, the level in serum ([2]; males, SD 10.3) was 76.3 ng/mL, the “level in serum, average value” ([2]; male patients with renal disease (17 males), SD 247) was 856 ng/mL and the “range of levels in sera from 99% of subjects” value ([2]; patients with renal dysfunction (n=30)) was 307 to 1403 ng/mL. For the same compound, the level in sera ([2]; sera of Example 4 subjects, SD 13.8) was 69.9 ng/mL, the “excreted amount in urine, average” value ([3]; female, age 0-10) was 4111 µg/day and the “excreted amount in urine, average” value ([3]; female, age 0-90) was 4507 µg/day. The “excreted amount in urine, average” value ([3]; female, age 10-30) was 4520 µg/day, the “excreted amount in urine, average” value ([3]; female, age 30-50) was 4824 µg/day and the “excreted amount in urine, average” value ([3]; female, age 50-70) was 4412 µg/day. The “excreted amount in urine, average” value ([3]; female, age 70-90) was 4666 µg/day, the “average excretion amount per day” value ([3]; male and female, all ages) was 4.5 mg/day and the “excreted amount in urine, average” value ([3]; male, age 0-10) was 4095 µg/day. The “excreted amount in urine, average” value ([3]; male, age 0-90) was 4488 µg/day, the “excreted amount in urine, average” value ([3]; male, age 10-30) was 4581 µg/day and the “excreted amount in urine, average” value ([3]; male, age 30-50) was 4498 µg/day. The “excreted amount in urine, average” value ([3]; male, age 50-70) was 4647 µg/day, the “excreted amount in urine, average” value ([3]; male, age 70-90) was 4622 µg/day and the “range of levels in cerebrospinal fluids from 99% of subjects” value ([4]; healthy persons (n=22)) was 72 to 188 ng/mL. For the same compound, the “level in cerebrospinal fluids” value ([4]; healthy persons (n=22), SD 29.1) was 130.4 ng/mL, the “level in cerebrospinal fluid” value ([4]; one patient with metastatic brain tumor) was 822.6 ng/mL and the “level in cerebrospinal fluid” value ([4]; one patient with spinocerebellar ataxia) was 399.4 ng/mL. For the same compound, the “levels in cerebrospinal fluids” value ([4]; patients with spinocerebellar ataxia or metastatic brain tumor) was no less than 400 ng/mL.

From patent US6610502B1, “Compound 2-amino-3-[2-(α-mannopyranosyl)indol-3-yl]propionic acid, process for preparing the same, and method for inspecting function of living body with the novel compound” (Kyowa Medex Co., Ltd., priority 1997, dated 2003)
